Literature values as cited in patent US20250375395A1 (priority 2016, published 2025).

Settings: carbonic acid/sodium bicarbonate

In the case of `O=C([O-])O.[Na+]` [sodium bicarbonate], the pKa is listed as 6.4.
